Laboratory results: patent US9533952B2, “N-prop-2-ynyl carboxamide derivatives and their use as TRPA1 antagonists” (Orion Corporation, priority 2012, dated 2017)

Molecular target: TRPA1 (Homo sapiens, UniProt O75762)
Assay: Determination of TRPA1 activity in vitro (TRPA1 antagonism in vitro)
Format: cell-based
Settings: procedure of Wei et al., Anesthesiology 111 (2009) 147-154

Chain of TRPA1 (O75762 whole entry): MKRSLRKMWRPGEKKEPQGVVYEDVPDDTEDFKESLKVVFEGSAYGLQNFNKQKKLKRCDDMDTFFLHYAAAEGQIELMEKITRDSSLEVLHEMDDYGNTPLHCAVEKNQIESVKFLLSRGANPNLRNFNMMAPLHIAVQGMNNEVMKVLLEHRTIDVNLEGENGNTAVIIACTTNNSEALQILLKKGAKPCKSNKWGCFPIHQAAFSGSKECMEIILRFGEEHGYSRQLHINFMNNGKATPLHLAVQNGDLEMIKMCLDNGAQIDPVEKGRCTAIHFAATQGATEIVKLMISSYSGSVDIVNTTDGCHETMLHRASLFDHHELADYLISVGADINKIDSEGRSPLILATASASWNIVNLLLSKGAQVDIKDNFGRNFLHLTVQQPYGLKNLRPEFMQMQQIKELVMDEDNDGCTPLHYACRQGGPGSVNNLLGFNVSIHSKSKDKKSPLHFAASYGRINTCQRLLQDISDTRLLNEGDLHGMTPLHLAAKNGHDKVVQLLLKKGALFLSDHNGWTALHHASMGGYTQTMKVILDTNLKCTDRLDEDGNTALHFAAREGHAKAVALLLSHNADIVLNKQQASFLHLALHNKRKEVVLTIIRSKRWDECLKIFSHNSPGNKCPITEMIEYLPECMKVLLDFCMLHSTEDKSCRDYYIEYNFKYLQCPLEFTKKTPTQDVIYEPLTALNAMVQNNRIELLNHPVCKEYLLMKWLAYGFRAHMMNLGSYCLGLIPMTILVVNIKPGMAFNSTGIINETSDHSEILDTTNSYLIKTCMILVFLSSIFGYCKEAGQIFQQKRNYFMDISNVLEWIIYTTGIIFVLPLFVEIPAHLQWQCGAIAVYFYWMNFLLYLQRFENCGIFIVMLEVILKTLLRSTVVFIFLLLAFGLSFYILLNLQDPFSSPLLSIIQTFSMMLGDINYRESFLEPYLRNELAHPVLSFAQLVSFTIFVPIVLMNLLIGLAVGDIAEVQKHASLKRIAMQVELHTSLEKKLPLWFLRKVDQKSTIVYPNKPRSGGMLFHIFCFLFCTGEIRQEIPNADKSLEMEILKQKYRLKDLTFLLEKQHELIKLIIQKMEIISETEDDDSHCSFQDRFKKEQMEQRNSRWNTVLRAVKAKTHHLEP

SMILES | IC50
C#CC(C)(C)NC(=O)c1cc(I)ccc1NCCOC [Example 50, 5-Iodo-2-(2-methoxyethylamino)-N-(2-methylbut-3-yn-2-yl)benzamide] | 5.8 µM
C#CC(C)(C)NC(=O)c1cc(F)cnc1NCC(C)C [Example 51, 5-Fluoro-2-(isobutylamino)-N-(2-methylbut-3-yn-2-yl)nicotinamide] | 2.2 µM
C#CC(C)(C)NC(=O)c1cc(F)cnc1NCCC(C)C [Example 52, 5-Fluoro-2-(isopentylamino)-N-(2-methylbut-3-yn-2-yl)nicotinamide] | 1.2 µM
C#CC(C)(C)NC(=O)c1cc(C(F)(F)F)cnc1NCC(F)F [Example 56, 2-(2,2-Difluoroethylamino)-N-(2-methylbut-3-yn-2-yl)-5-(trifluoromethyl)nicotinamide] | 1.6 µM
C#CC(C)(C)NC(=O)c1cc(C(F)(F)F)cnc1NCCC(F)F [Example 58, 2-(3,3-Difluoropropylamino)-N-(2-methylbut-3-yn-2-yl)-5-(trifluoromethyl)nicotinamide] | 1.1 µM
C#CC(C)(C)NC(=O)c1cc(Cl)cnc1NCC(C)(F)F [Example 59, 5-Chloro-2-(2,2-difluoropropylamino)-N-(2-methylbut-3-yn-2-yl)nicotinamide] | 2.3 µM
C#CC(C)(C)NC(=O)c1cc(Cl)cnc1NCCC(F)F [Example 60, 5-Chloro-2-(3,3-difluoropropylamino)-N-(2-methylbut-3-yn-2-yl)nicotinamide] | 1.8 µM
C#CC(C)(C)NC(=O)c1cc(F)c(F)cc1NCCC(F)(F)F [Example 66, 4,5-Difluoro-N-(2-methylbut-3-yn-2-yl)-2-(3,3,3-trifluoropropylamino)-benzamide] | 0.9 µM
C#CC(C)(C)NC(=O)c1cc(F)c(F)cc1NC(C)C [Example 67, 4,5-Difluoro-2-(isopropylamino)-N-(2-methylbut-3-yn-2-yl)benzamide] | 5.5 µM
C#CC(C)(CC(C)C)NC(=O)c1cc(F)c(F)cc1NCC(C)C (stereo not shown) [Example 68, N-(3,5-Dimethylhex-1-yn-3-yl)-4,5-difluoro-2-(isobutylamino)-benzamide] | 1.1 µM
C#CC(C)(C)NC(=O)c1ccc(C(F)(F)F)cc1NCCC(F)(F)F [Example 72, N-(2-methylbut-3-yn-2-yl)-4-(trifluoromethyl)-2-(3,3,3-trifluoropropyl-amino)benzamide] | 0.5 µM
C#CC(C)(C)NC(=O)c1ccc(OC)cc1NCCC(F)(F)F [Example 73, 4-Methoxy-N-(2-methylbut-3-yn-2-yl)-2-(3,3,3-trifluoropropylamino)-benzamide] | 2.2 µM
C#CC(C)(C)NC(=O)c1cc(C)ccc1NCCC(F)(F)F [Example 77, 5-Methyl-N-(2-methylbut-3-yn-2-yl)-2-(3,3,3-trifluoropropylamino)-benzamide] | 0.9 µM
C#CC(C)(C)NC(=O)c1ccccc1NCCC(F)(F)F [Example 79, N-(2-Methylbut-3-yn-2-yl)-2-(3,3,3-trifluoropropylamino)benzamide] | 1.8 µM
C#CC(C)(C)NC(=O)c1ccccc1NCC(C)C [Example 80, 2-(Isobutylamino)-N-(2-methylbut-3-yn-2-yl)benzamide] | 1.3 µM
C#CC(C)(C)NC(=O)c1cc(F)c(F)cc1NC(C)(C)C [Example 82, 2-(tert-Butylamino)-4,5-difluoro-N-(2-methylbut-3-yn-2-yl)benzamide] | 5.4 µM
C#CC(C)(C)NC(=O)c1ccc(C(F)(F)F)cc1NC [Example 84, 2-(Methylamino)-N-(2-methylbut-3-yn-2-yl)-4-(trifluoromethyl)-benzamide] | 7.5 µM
C#CC(C)(C)NC(=O)c1cc(OC)c(OC)cc1NCC(C)C [Example 88, 2-(Isobutylamino)-4,5-dimethoxy-N-(2-methylbut-3-yn-2-yl)benzamide] | 14.2 µM
C#CC(C)(C)NC(=O)c1ccc(F)cc1NC1CC1 [Example 90, 2-(Cyclopropylamino)-4-fluoro-N-(2-methylbut-3-yn-2-yl)benzamide] | 4.8 µM
C#CC(C)(C)NC(=O)c1cc(F)ccc1NC1CC1 [Example 91, 2-(Cyclopropylamino)-5-fluoro-N-(2-methylbut-3-yn-2-yl)benzamide] | 7 µM

Further compounds by falling IC50, results first:

IC50 | SMILES
13.2 µM | C#CC(C)(C)NC(=O)c1cc(OC(F)(F)F)ccc1NC [Example 85, 2-(Methylamino)-N-(2-methylbut-3-yn-2-yl)-5-(trifluoromethoxy)-benzamide]
12.3 µM | C#CC(C)(C)NC(=O)c1cc(F)ccc1NC(C)C [Example 92, 5-Fluoro-2-(isopropylamino)-N-(2-methylbut-3-yn-2-yl)benzamide]
11.4 µM | C#CC(C)(C)NC(=O)c1cc(C)ccc1NC(C)C [Example 93, 2-(Isopropylamino)-5-methyl-N-(2-methylbut-3-yn-2-yl)benzamide]
8.6 µM | C#CC(C)(C)NC(=O)c1ccc(C(F)(F)F)cc1NCCOC [Example 89, 2-(2-Methoxyethylamino)-N-(2-methylbut-3-yn-2-yl)-4-(trifluoro-methyl)benzamide]
7 µM | C#CC(C)(C)NC(=O)c1ccc(OC)cc1NCCC [Example 74, 4-Methoxy-N-(2-methylbut-3-yn-2-yl)-2-(propylamino)benzamide]
5.7 µM | C#CC(C)(C)NC(=O)c1cc(C(F)(F)F)ccc1NCCOC [Example 48, 2-(2-Methoxyethylamino)-N-(2-methylbut-3-yn-2-yl)-5-(trifluoromethyl)benzamide]
5.6 µM | C#CC(C)(C)NC(=O)c1cc(Cl)cc(F)c1NC(C)C [Example 95, 5-Chloro-3-fluoro-2-(isopropylamino)-N-(2-methylbut-3-yn-2-yl)-benzamide]
4.9 µM | C#CC(C)(C)NC(=O)c1cc(F)c(F)cc1NCC [Example 65, 2-(Ethylamino)-4,5-difluoro-N-(2-methylbut-3-yn-2-yl)benzamide]
4.7 µM | C#CC(C)(C)NC(=O)c1cc(F)cnc1NCC(C)(F)F [Example 57, 2-(2,2-Difluoropropylamino)-5-fluoro-N-(2-methylbut-3-yn-2-yl)nicotinamide]
4.7 µM | C#CC(C)(C)NC(=O)c1cc(OC)ccc1NCCC(F)(F)F [Example 76, 5-Methoxy-N-(2-methylbut-3-yn-2-yl)-2-(3,3,3-trifluoropropyl-amino)benzamide]
3.1 µM | C#CC(C)(C)NC(=O)c1cc(F)c(F)cc1NCCC [Example 63, 4,5-Difluoro-N-(2-methylbut-3-yn-2-yl)-2-(propylamino)benzamide]
2.9 µM | C#CC(C)(C)NC(=O)c1ccc(F)cc1NC(C)C [Example 83, 4-Fluoro-2-(isopropylamino)-N-(2-methylbut-3-yn-2-yl)benzamide]
2.2 µM | C#CC(C)(C)NC(=O)c1cc(F)c(F)cc1NC1CC1 [Example 86, 2-(Cyclopropylamino)-4,5-difluoro-N-(2-methylbut-3-yn-2-yl) benzamide]
1.9 µM | C#CC(C)(C)NC(=O)c1cc(F)ccc1NCCOC(F)(F)F [Example 53, 5-Fluoro-N-(2-methylbut-3-yn-2-yl)-2-(2-(trifluoromethoxy)-ethylamino)benzamide]
1.8 µM | C#CC(C)(C)NC(=O)c1ccc(C)cc1NCCC(F)(F)F [Example 94, 4-Methyl-N-(2-methylbut-3-yn-2-yl)-2-(3,3,3-trifluoropropylamino)-benzamide]
1.7 µM | C#CC(C)(C)NC(=O)c1cc(F)cc(F)c1NCCC(F)(F)F [Example 55, 3,5-Difluoro-N-(2-methylbut-3-yn-2-yl)-2-(3,3,3-trifluoropropylamino)-benzamide]
1.5 µM | C#CC(C)(C)NC(=O)c1ccccc1NCCCC [Example 64, 2-(Butylamino)-N-(2-methylbut-3-yn-2-yl)benzamide]
1.3 µM | C#CC(C)(C)NC(=O)c1ccccc1NCC(C)(C)C [Example 81, N-(2-Methylbut-3-yn-2-yl)-2-(neopentylamino)benzamide]
1.2 µM | C#CC(C)(C)NC(=O)c1cc(F)ccc1NCCCC(F)(F)F [Example 54, 5-Fluoro-N-(2-methylbut-3-yn-2-yl)-2-(4,4,4-trifluorobutylamino)-benzamide]
1.1 µM | C#CC(C)(C)NC(=O)c1cc(F)ccc1NCCCC [Example 49, 2-(Butylamino)-5-fluoro-N-(2-methylbut-3-yn-2-yl)benzamide]
0.8 µM | C#CC(C)(C)NC(=O)c1cc(F)c(F)cc1NCC(C)(C)C [Example 61, 4,5-Difluoro-N-(2-methylbut-3-yn-2-yl)-2-(neopentylamino) benzamide]
0.8 µM | C#CC(C)(C)NC(=O)c1cc(SC)ccc1NCCC(F)(F)F [Example 78, N-(2-Methylbut-3-yn-2-yl)-5-(methylthio)-2-(3,3,3-trifluoropropyl-amino)benzamide]
0.7 µM | C#CC(C)(CCC)NC(=O)c1cc(F)c(F)cc1NCC(C)C (stereo not shown) [Example 70, 4,5-Difluoro-2-(isobutylamino)-N-(3-methylhex-1-yn-3-yl)benzamide]
0.7 µM | C#CC(C)(C)NC(=O)c1ccc(F)cc1NCCC(F)(F)F [Example 71, 4-Fluoro-N-(2-methylbut-3-yn-2-yl)-2-(3,3,3-trifluoropropylamino) benzamide]
0.7 µM | C#CC(C)(C)NC(=O)c1cc(OC(F)(F)F)ccc1NCCC(F)(F)F [Example 75, N-(2-Methylbut-3-yn-2-yl)-5-(trifluoromethoxy)-2-(3,3,3-trifluoropropylamino)benzamide]
0.6 µM | C#CC(C)(NC(=O)c1cc(F)c(F)cc1NCC)C(C)C (stereo not shown) [Example 87, N-(3,4-Dimethylpent-1-yn-3-yl)-2-(ethylamino)-4,5-difluorobenzamide]
0.5 µM | C#CC(CC)(CC)NC(=O)c1cc(I)ccc1NCCOC [Example 47, N-(3-Ethylpent-1-yn-3-yl)-5-iodo-2-(2-methoxyethylamino)benzamide]
0.4 µM | C#CC(C)(C)NC(=O)c1cc(F)c(F)cc1NCC(C)C [Example 62, 4,5-Difluoro-2-(isobutylamino)-N-(2-methylbut-3-yn-2-yl)benzamide]
0.3 µM | C#CC(C)(NC(=O)c1cc(F)c(F)cc1NCC(C)C)C(C)C (stereo not shown) [Example 69, N-(3,4-Dimethylpent-1-yn-3-yl)-4,5-difluoro-2-(isobutylamino)-benzamide]
